{"source": "paper PMC11649117", "about": "“SLMO transfers phosphatidylserine between the outer and inner mitochondrial membrane in Drosophila” (PLOS Biology, 2024)", "biological_target": "T1, SLMO (Slowmo); MBP-SLMO (Drosophila melanogaster, UniProt Q9V3U9)", "T1 construct": "N-terminal MBP fusion from pMAL-c6T (BamHI/EcoRI), E. coli BL21(DE3), Ni-NTA purified; tag kept", "T1 sequence (Q9V3U9 1-215)": "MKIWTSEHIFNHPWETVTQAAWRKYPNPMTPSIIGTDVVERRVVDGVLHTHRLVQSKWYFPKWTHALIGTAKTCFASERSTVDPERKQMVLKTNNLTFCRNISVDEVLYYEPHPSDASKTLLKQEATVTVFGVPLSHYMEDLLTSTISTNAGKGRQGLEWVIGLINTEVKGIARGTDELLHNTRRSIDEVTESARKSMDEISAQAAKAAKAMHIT", "assay": "liposome lipid transfer assay, NBD dequenching", "assay_type": "biochemical", "conditions": "labelled compound, donor liposomes PC:PE:Rhod-PE:NBD-PS 56:40:3:1, acceptor PC:PE:CL 55:40:5, no chemical conversion", "data": [{"compound": "CCCCCCCC/C=C\\CCCCCCCC(=O)OC[C@H](COP(=O)(O)OC[C@H](N)C(=O)O)OC(=O)CCCCCCCCCCCNc1ccc([N+](=O)[O-])c2nonc12", "note": "[NBD-PS]", "values": [{"measurement": "liposome lipid transfer assay, NBD dequenching", "result": "SLMO efficiently transported PS but not PE between liposomes in vitro"}]}]}
